# Experimental data: patent US20240043794A1, “Chemically Defined Serum Albumin Substitutes” (Life Technologies Corporation, priority 2020, published 2024)
# Like-named read-outs stand apart in the source and are kept apart here.
# Experiments:
# [1] = tested on: rat neurons; test: Rat neuron viability with low or high GSH or lipoic acid; format: cell-based; conditions: low or high concentration, compared to control culture
# Procedure: Applicants then tested chemically defined components that may replace the catalase and thiol antioxidant activity of albumins. GSH and lipoic acid were assessed for their ability to provide catalase and thiol antioxidant activity by culturing rat neurons in the presence of either low or high concentrations of GSH or lipoic acid and subsequently assaying cell viability.
# [2] = Superoxide Dismutase (SOD) Colorimetric Activity Kit; format: biochemical; conditions: range of concentrations
# Procedure: Applicants first analyzed the superoxide dismutase (SOD) activity of various albumins, utilizing the Superoxide Dismutase (SOD) Colorimetric Activity Kit (Thermo Fisher Scientific, Waltham, MA), according to the manufacturer's protocol. Briefly, SOD activity was assessed utilizing an assay comprising the reaction of a substrate and Xanthine Oxidase to form superoxide (O^−2), the levels of which are decreased by SOD activity.
# Next, the ability of chemically defined components to replace SOD antioxidant activity was tested. Mito-Tempo, which scavenges O2•^− in mitochondria, was compared with HSA for its ability to reduce superoxide, as assessed using the Superoxide Dismutase (SOD) Colorimetric Activity Kit (Thermo Fisher Scientific, Waltham, MA), according to the manufacturer's protocol.
# [3] = Water solubility; format: physicochemical; conditions: compared to Vitamin E
# Description: (§1) Trolox (6-hydroxy-2,5,7,8-tetramethylchroman-2-carboxylic acid), a water-soluble derivative of Vitamin E, was investigated as a replacement for albumin. […] Without any anti-oxidant, aged neurons started to degenerate at about day 4, leaving few viable neurons left on the plate.
# [4] = tested on: Rat cortical neuron (RCN) cells; test: Rat cortical neuron (RCN) survival in neurobasal medium with ITS; format: cell-based; conditions: for RCN cell survival: increasing concentrations, assessed on day 6
# Description: as §1
# [5] = tested on: neuronal cell; test: Interactions between B27 supplement components and albumins, neuronal cell viability; format: cell-based; conditions: B27-supplemented media
# Procedure: Next, interactions between different components of B27 supplement and various albumins were analyzed (FIGS. 1B-1J). The effect of these molecular interactions were also assessed for their effect on neuronal cell stability in cell culture.
# [6] = tested on: rat neurons
# Procedure: (§5) The effect of different BSAs on cell viability was tested using the eBioscience™ Calcein AM Viability Dye, according to manufacturer's protocol. Briefly, rat neurons were cultured in neurobasal medium supplemented with ITS and BSA1 or BSA2 at a concentration of 0.25%.
# (§6) The ability of antioxidant to reverse iron-induced toxicity was then investigated. Tocopherol at a concentration of 2 μg/mL in neurobasal medium supplemented with lean supplement (Insulin-Transferrin-Selenium, ITS) was added to cultured rat neuron cells and either BSA1 or BSA2.
# [7] = tested on: rat neuron cells; test: Rat neuron viability with synthetic peptides replacing albumin; format: cell-based; conditions: for viability of cultured rat neuron cells, HSA-like function: FIG. 11; for rat neuron cell viability, HSA supportive properties: culture medium lacking albumin, FIG. 10; for rat neuron cell growth: neurobasal medium with ITS, day 5, Calcein AM, FIG. 20
# Description: Albumins such as HSA have a metal binding site, which functions as a chelator of transition metals that are toxic to neuron cells. Applicants therefore investigated whether HSA may be replaced by a synthetic peptide, which mimics the high affinity binding of the functional metal binding site. […] Peptide B, which is the Peptide C sequence extended by 5 additional flanking HSA residues on either end, was similarly non-functional. […] Without wishing to be bound by scientific theory, the additional amino acid residues may block or otherwise inhibit the chelating functions of the Peptide C sequence.
# The importance of Peptide C ionic property and sequence specificity in conferring enhancing properties to cell cultures was investigated. The tetrapeptide DAHK (SEQ ID NO:1) is a sequence comprising negatively, neutral, and two positively charged amino acids (−X++). […] To assess if amino acid sequence or charge specificity confers beneficial properties, a scrambled Peptide C sequence was prepared and tested. The scrambled peptide comprising the sequence AKDH (SEQ ID NO: 3; scramble) and charge of X+−+ was tested, and results are shown in FIG. 11.
# To determine the impact of peptide length, Applicants assessed a variety of peptides that varied both in length and in the identity of the amino acid residue(s) that flank the Peptide C DAHK sequence (SEQ ID NO:1). Further, to assess the effect of ionic property, peptides were tested that included amino acid substitutions to the peptide of SEQ ID NO:1. The amino acid substitutions were designed to retain ionic and hydrophobic properties of SEQ ID NO:1, namely by preserving the order of negatively charged, hydrophobic uncharged, and positively charged residues. […] The cultures were further supplemented with rHSA, or a variation of the Peptide C derived synthetic peptide.
# In a first set of cell cultures, the synthetic peptides included the DAHK (SEQ ID NO:1) amino acid sequence or peptides with additional residues on one or both the N-terminus and C-terminus of SEQ ID NO:1. On day 5 of culturing, the cells were labeled with Calcein AM and counted. […] That is, the length of adjacent residues on the N-terminus and C-terminus of the peptide is not critical for maintaining the function of peptide C unless the conformation is impacted as so not to maintain its beneficial properties in cell culture.
# [8] = tested on: human neural stem cells (NSC); test: B-27 supplemented cell culture performance of albumins, human NSC; format: cell-based; conditions: B-27 supplemented culture
# Procedure: (§2) Commercially available albumins were analyzed for performance in cell cultures. Bovine serum albumin (BSA), human serum albumin (HSA) and recombinant human serum albumin (Rec HSA) from various sources (including different manufacturers, bovine, human, recombinant HSA (made in yeast or rice), and Freestyle CHO MAX media (Thermo Fisher cat. no. K900020) were analyzed. B-27 (Thermo Fisher Scientific cat. no. 17504044) supplemented cell cultures for mouse pluripotent stem cells (PSC), primary rat neurons, or human neural stem cells (NSC) were prepared (approx. 0.5 to 1× final concentration of B27 in medium). The cultures varied only in the source or type of albumin present. Results shown in FIG. 1A illustrate that significant performance differences existed among the albumins tested, and further that performance is dependent on cell type. In fact, two cultures comprising the same cell line and differing only in addition of BSA1 or BSA2 differed in performance.
# [9] = tested on: rat neurons; test: Calcein AM viability assay of rat neurons in neurobasal medium with ITS
# Procedure: as §5, §6
# [10] = tested on: mouse pluripotent stem cells (PSC); test: B-27 supplemented cell culture performance of albumins, mouse PSC; format: cell-based; conditions: B-27 supplemented culture
# Procedure: as §2
# [11] = tested on: FoxG1 expression in pluripotent stem cells (PSC); test: FoxG1 expression and specification of PSC differentiation, ICC and qPCR; format: cell-based, human
# Procedure: Peptide C (SEQ ID NO:1) was assessed for its effect on cell differentiation. […] Without wishing to be bound by theory, this was likely due to variations in cholesterol levels within the albumin samples. To assess the effect of the tetrapeptide […] on cell differentiation, pluripotent stem cells (PSC) were cultured in the presence either BSA1, BSA2, or peptide C. […] Results are shown in FIGS. 17A and 17B, respectively. […] Upon differentiation, cells will develop their positional identity such as forebrain, midbrain, hindbrain etc. Specification is the step where PSC develop this positional identification.
# [12] = tested on: human neural stem cells (hNSC); test: hNSC proliferation, VI-CELL XR cell counting assay; format: cell-based; conditions: compared to BSA1
# Procedure: (§3) BSA1 and BSA2 were further analyzed for their effect on stem cells. Mouse embryonic stem cells (mESC) or human neural stem cells (hNSC) were grown in cell culture media containing BSA1 or BSA2, and proliferation was measured. Proliferation of mESCs was measured using PrestoBlue assay (Thermo Fisher Scientific) according to the manufacturer's protocol. Proliferation of hNSCs was measured with VI-CELL™ XR cell counting assay (Beckman Coulter) according to the manufacturer's protocol.
# [13] = tested on: Mouse embryonic stem cells (mESC); test: mESC proliferation, PrestoBlue assay; format: cell-based; conditions: compared to BSA1
# Procedure: as §3
# [14] = tested on: rat neuron cells; conditions: 50 μM copper, neurobasal medium with ITS
# [15] = Lot-to-lot consistency and shelf life of the peptide; format: physicochemical; conditions: multiple lots, in solution
# [16] = tested on: mouse embryonic stem cell (mESC); test: Copper-stressed mESC proliferation, PRESTOBLUE viability; format: cell-based; conditions: 50 μM copper, 100 μg/mL or 50 μg/mL peptide
# Procedure: (§4) The effect of metals and synthetic peptides were further assessed in mouse embryonic stem cell (mESC) and HEK293 cell proliferation cultures. mESC and HEK293 cultures were spiked with 50 μM copper, thereby creating a toxic culture environment and inhibiting cell proliferation. […] PRESTOBLUE™ cell viability reagent (Thermo Fisher Scientific, Waltham, MA), was used to assess viability according to the manufacturer's protocol.
# [17] = tested on: HEK293 cells; test: Copper-stressed HEK293 proliferation, PRESTOBLUE viability; format: cell-based; conditions: 50 μM copper, 100 μg/mL or 50 μg/mL peptide
# Procedure: as §4
compound,measurement,setting,value
"O=C(O)CCCC[C@@H]1CCSS1 (racemic) [Lipoic acid, lipoic acid]",rat neuron cell viability,[1],enhanced rat neuron cell viability
"N[C@@H](CCC(=O)N[C@@H](CS)C(=O)NCC(=O)O)C(=O)O [GSH, glutathione]",rat neuron cell viability,[1],neither concentration of GSH tested showed significant effects on cell viability
"CC1(C)CC(NC(=O)C[P+](c2ccccc2)(c2ccccc2)c2ccccc2)CC(C)(C)N1[O] [Mito-Tempo, (2-(2,2,6,6-tetramethylpiperidin-1-oxyl-4-ylamino)-2-oxoethyl)triphenylphosphonium chloride]",superoxide levels,[2],decrease superoxide levels in a dose-dependent manner
"Cc1c(C)c2c(c(C)c1O)CCC(C)(C(=O)O)O2 (stereo not drawn) [Trolox, 6-hydroxy-2,5,7,8-tetramethylchroman-2-carboxylic acid]",water solubility,[3],higher water solubility
same,working range,[4]; compared to Vitamin E,wider working range than Vitamin E
same,RCN cell survival,[4],reversed cell death
"CC(=O)Oc1c(C)c(C)c2c(c1C)CCC(C)(CCC[C@H](C)CCC[C@H](C)CCCC(C)C)O2 (stereo partly drawn) [X2, Tocopherol acetate]",effect on neuronal cell viability of B27 component interacting with BSA and HSA,[5],positive effects on neuronal cell viability
[Fe] [iron],rat neuron viability,[6],rat neuron viability was decreased
AKDH [reference compound],"viability of cultured rat neuron cells, HSA-like function",[7],the HSA-like function was abolished
BSA1: BSA source with higher iron content; fatty acid free,cell culture performance,[8],supportive properties
same,rat neuron viability,"[9]; albumin at 0.25%, compared to BSA2",reduced viability of rat neurons
same,cell culture performance,[10],supportive properties
same,specification of PSC differentiation,[11],specification of PSC differentiation was impacted
BSA2: BSA from a second source; fatty acid rich,proliferation of hNSC,[12],reduces proliferation
same,cell culture performance,[8],caused toxicity
same,cell culture performance,[10],caused toxicity
same,specification of PSC differentiation,[11],specification of PSC differentiation was impacted
same,proliferation of mESC,[13],reduces proliferation
DAHK [Peptide C],prevention of copper induced toxicity,[14],prevented toxicity even in the presence of copper
same,lot-to-lot consistency and shelf life,[15],"lot-to-lot consistency and good shelf life, even in solution"
same,"viability of cultured rat neuron cells, HSA-like function",[7],functional in improving viability of cultured rat neuron cells
same,"rat neuron cell viability, HSA supportive properties",[7],enhanced rat neuron cell viability
same,rescue of copper stressed cells,[16],rescued the stressed cells in a concentration dependent manner
same,rescue of copper stressed cells,[17],to a lesser extent
same,specification of PSC differentiation,[11],no significant impact
DTHK [counterpart BSA peptide],"viability of cultured rat neuron cells, HSA-like function",[7],functional in improving viability of cultured rat neuron cells
FRRDAHKSEV [SEQ ID NO:16],rat neuron cell growth,[7],convey beneficial properties to cell culture
FRRDAHKSEVA [SEQ ID NO:17],rat neuron cell growth,[7],convey beneficial properties to cell culture
GVFRRDAHKSEVAH [Peptide B],"rat neuron cell viability, HSA supportive properties",[7],non-functional
RRDAHK [SEQ ID NO:12],rat neuron cell growth,[7],convey beneficial properties to cell culture
RRDAHKS [SEQ ID NO:13],rat neuron cell growth,[7],convey beneficial properties to cell culture
RRDAHKSE [SEQ ID NO:15],rat neuron cell growth,[7],convey beneficial properties to cell culture
SAYSRGVFRRDAHKSEVAHRFKD [peptide A],"rat neuron cell viability, HSA supportive properties",[7],did not retain HSA supportive properties
Tocopherol [reference compound],reversal of decreased viability due to BSA1 or iron,[9]; 2 μg/mL,reversed decreased viability of the rat neuron cells
same,effect on neuronal cell viability of B27 component interacting with BSA and HSA,[5],positive effects on neuronal cell viability
Vitamin E,RCN cell survival,[4],reversed cell death
